Patent publication US20030133929A1 (priority 2002, published 2003)

Columns and labels:
virus particles = experiment: electron microscope study of virus particles before and after inactivation; conditions: inactivation for 60 min, 1 min and 30 seconds
[1] = tested on: Sinbis, Sendai and VSV viruses; conditions: 4° C.; cited from earlier work
HIV virus = conditions: 5 minute contact, room temperature; ether removed by distillation at 50-52° C.; cited from earlier work
[2] = target: blood protein factor VIII (Homo sapiens, UniProt P00451); conditions: cited from earlier work
Chain of blood protein factor VIII (P00451 20-2351): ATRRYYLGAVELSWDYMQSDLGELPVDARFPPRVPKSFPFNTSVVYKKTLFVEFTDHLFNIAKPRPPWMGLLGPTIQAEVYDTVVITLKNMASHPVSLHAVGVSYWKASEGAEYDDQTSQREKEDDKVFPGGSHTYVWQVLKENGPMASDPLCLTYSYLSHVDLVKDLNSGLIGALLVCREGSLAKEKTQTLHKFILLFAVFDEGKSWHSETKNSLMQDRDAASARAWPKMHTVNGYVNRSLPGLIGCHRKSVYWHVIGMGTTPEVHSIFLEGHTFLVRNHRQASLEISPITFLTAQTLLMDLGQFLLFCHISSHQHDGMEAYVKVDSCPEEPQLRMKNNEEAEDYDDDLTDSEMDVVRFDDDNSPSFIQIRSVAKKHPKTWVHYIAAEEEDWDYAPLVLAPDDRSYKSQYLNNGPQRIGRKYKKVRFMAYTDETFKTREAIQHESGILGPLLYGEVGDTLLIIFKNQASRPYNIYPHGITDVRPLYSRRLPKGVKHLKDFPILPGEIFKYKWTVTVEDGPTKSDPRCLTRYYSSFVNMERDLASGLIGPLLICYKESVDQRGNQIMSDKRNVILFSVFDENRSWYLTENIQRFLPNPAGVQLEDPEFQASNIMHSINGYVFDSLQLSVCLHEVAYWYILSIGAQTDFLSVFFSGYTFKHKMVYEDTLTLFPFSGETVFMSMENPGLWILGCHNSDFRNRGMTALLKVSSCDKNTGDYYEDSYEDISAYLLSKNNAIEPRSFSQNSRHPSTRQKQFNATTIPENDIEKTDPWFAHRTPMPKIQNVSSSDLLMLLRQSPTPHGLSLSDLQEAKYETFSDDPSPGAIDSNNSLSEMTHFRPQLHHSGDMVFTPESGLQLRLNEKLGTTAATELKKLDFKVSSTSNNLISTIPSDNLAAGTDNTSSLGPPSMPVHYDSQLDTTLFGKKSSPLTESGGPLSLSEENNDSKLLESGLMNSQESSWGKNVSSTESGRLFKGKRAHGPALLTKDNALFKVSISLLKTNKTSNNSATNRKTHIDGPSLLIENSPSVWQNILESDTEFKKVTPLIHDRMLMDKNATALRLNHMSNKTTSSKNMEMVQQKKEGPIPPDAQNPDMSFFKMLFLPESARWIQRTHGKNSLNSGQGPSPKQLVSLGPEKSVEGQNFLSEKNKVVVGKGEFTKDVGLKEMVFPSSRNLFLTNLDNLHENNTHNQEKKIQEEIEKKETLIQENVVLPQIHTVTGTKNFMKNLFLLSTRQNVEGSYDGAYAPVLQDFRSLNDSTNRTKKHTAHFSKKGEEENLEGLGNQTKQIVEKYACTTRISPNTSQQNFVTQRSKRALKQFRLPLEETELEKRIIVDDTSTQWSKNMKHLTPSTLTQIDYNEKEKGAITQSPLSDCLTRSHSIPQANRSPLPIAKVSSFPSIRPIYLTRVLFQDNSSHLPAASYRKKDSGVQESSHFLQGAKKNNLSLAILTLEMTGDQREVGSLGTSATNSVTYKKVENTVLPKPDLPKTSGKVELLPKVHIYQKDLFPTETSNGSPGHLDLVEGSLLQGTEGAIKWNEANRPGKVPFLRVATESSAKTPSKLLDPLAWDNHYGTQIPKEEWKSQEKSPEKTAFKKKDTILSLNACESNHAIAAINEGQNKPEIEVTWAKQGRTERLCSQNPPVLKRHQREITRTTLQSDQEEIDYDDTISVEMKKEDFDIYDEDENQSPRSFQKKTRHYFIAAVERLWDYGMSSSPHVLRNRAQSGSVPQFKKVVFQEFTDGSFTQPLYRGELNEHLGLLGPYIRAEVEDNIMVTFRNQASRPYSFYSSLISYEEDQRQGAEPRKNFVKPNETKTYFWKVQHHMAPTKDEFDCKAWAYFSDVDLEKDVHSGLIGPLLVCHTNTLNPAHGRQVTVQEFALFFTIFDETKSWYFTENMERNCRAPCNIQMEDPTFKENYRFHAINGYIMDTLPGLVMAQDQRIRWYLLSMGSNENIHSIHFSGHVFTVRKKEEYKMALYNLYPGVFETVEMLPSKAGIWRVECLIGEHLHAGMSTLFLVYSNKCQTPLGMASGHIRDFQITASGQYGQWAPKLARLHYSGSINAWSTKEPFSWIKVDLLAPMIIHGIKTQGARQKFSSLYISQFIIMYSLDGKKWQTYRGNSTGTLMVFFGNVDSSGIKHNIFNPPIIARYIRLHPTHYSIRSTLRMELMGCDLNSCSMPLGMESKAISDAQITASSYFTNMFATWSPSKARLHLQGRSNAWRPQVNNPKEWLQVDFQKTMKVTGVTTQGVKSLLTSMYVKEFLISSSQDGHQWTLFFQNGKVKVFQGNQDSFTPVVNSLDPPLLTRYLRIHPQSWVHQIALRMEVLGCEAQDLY

SMILES: CC(C)OC(C)C [DIPE, di-isopropyl ether]
- infectivity or visible virus particles by EM (virus particles): no infectivity or visible virus particles detected

SMILES: CCOCC [diethyl ether]
- time to inactivate these viruses [1]: many hours
- inactivation of the HIV virus (HIV virus): complete inactivation

SMILES: O=C1CCO1 [β-propiolactone]
- inactivation of factor VIII [2]: up to 75%
